# Experiments:
# [1] = system: iPSC-BMECs; test: Biphalin uptake studies in iPSC-BMECs; type: in vitro ADME, human
# Description: (§1) We measured the level of biphalin in cell lysate (uptake studies) and transport buffer (transport studies) while using our developed, highly sensitive LC-MS/MS method. Briefly, biphalin was extracted from the samples by the addition of acetonitrile (1:2) containing 10 ng/mL internal standard, [D-Ala^2] Leucine Enkephalin (Sigma-Aldrich, St. Louis, MO, USA). After 1-min. vortexing, the mixture is centrifuged at 10,000 rpm for 10 min. After that the supernatant is mixed with an equivalent volume of LCMS water and then loaded into the insert vials ready for the analysis. The UHPLC-MS/MS system equipped with AB SCIEX QTRAP® 5500 mass spectrometer (Foster City, CA, USA) attached to a Nexera ultra high performance liquid chromatography (UHPLC) system from Shimadzu Corporation (Columbia, MD, USA) was used. Data acquisition and quantification were performed by Analyst software 1.7.0.
# (§2) Chromatographic separation was then performed with a Kinetex C18 column (50 × 2.1mm, 1.8 μm, Phenomenex, Torrance, CA, USA) while using mobile phases, 0.1% formic acid in water and 0.1% formic acid in acetonitrile. The gradients of acetonitrile (10% at time zero, 31% at 2.5 min., 90% at 2.6 min. up to 3.6, followed by 10% at 3.7 min. up to 4.5 min.) were used to elute biphalin at a flow rate of 0.4 mL/min. Column temperature was maintained at 45 °C. The retention time of biphalin was ∼1.8 min. while the retention time for the internal standard (IS) was ∼2.2 min. Multiple reaction monitoring was conducted in […], and the transitions for biphalin and internal standard were 455.2 → 136.2 m/z and 570.3 → 120.3 m/z, respectively. The collision energy for biphalin and IS was 40 and 45 volts, respectively.
# Differentiated BMECs (iPSC-BMECs) are seeded in 12-well plates, incubated with either biphalin (10 µg/mL) (control) or pre-incubated with OATP1 substrate, estrone-3-sulfate (E3S) (10 µM) for 10 min., followed by co-incubation of E3S and 10 µg/mL biphalin in the 37 °C incubator for 20 min. The incubation time, 20 min. was selected to get detectable amount of biphalin in the cell extract. Next, the cells are washed two times with ice-cold phosphate buffered saline (PBS, pH 7.4). The cells were solubilized with 100 µL radioimmunoprecipitation assay (RIPA) Buffer (Thermo Fisher, Waltham, MA, USA) with protease and phosphatase inhibitor cocktail (Thermo Fisher, Waltham, MA, USA), and the amount of biphalin uptake was determined by using the above LCMS method. Protein content was calculated with a detergent-compatible bicinchoninic acid (BCA) assay (Pierce Chemical, Rockford, IL, USA). Biphalin uptake was normalized while using protein content and then presented as biphalin (ng) per µg of protein.
# In vitro stroke conditions were simulated by exposing the cells to oxygen-glucose deprivation (OGD) conditions. Briefly, iPSC-BMECs were rinsed twice with Dulbecco’s Modified Eagle medium Solution (DMEM). The cells were incubated with DMEM media (without glucose) plus 1% of PDS [33]. Hypoxia (1% oxygen) was induced by placing the cells in a hypoxic polymer glove box (Coy Laboratories, Grayslake, MI, USA), which was infused with 95% N2 and 5% CO2 at 37 °C. Cells were exposed to OGD condition for 1 h, 2 h, and 6 h, followed by reperfusion with OGD media with glucose and sodium pyruvate. For reperfusion studies, the cells were incubated in the CO2 incubator for pre-determined timepoints, 30 min., 1 h, 2 h, and 6 h.
# [2] = system: OATP1; test: Biphalin transcellular transport across iPSC-BMECs monolayer (transwell in vitro BBB model); type: in vitro ADME, human; conditions: human; normoxic; E3S pre-incubated 30 min, both luminal and abluminal sides, then biphalin 10 µg/mL plus E3S; A-B; corrected for FITC-dextran 4 kD; LC-MS/MS; mean ± SD, n = 4; read-out: net permeability coefficient (PC) of biphalin, apical to basolateral, with E3S (converted)
# Description: as §1, §2
# (§3) Transport studies were performed to determine the role of OATP1 on the blood-to-brain transport of biphalin. Confluent iPSC-BMECs, (one million cells/insert) were seeded to the apical side of a 12-well transwell insert (area 1.12 cm^2, polyester), which is pre-coated with 400 µg/mL collagen and 100 µg/mL fibronectin [35]. 10 µg/mL biphalin and an equivalent concentration of FITC-dextran (4kD) were added to the apical compartment. For studies using an inhibitor and OATP1 substrate, E3S was pre-incubated for 30 min., followed by incubation with biphalin and E3S [11]. E3S was added to both the luminal and abluminal sides to inhibit the transporters on both sides. The results were expressed as a net permeability coefficient (PC) after subtracting the PC of FITC-dextran from the PC of biphalin.
# (§4) In vitro stroke conditions were simulated by exposing the cells to oxygen-glucose deprivation (OGD) conditions. […] For reperfusion studies, the cells were incubated in the CO2 incubator for pre-determined timepoints, 30 min., 1 h, 2 h, and 6 h.
# [3] = system: iPSC-BMECs monolayer; test: as above; type: in vitro ADME, human
# Description: as §1, §2, §3, §4
# [4] = cited from earlier work
# From the text: Our lab has communicated several studies that reported the neuroprotective potential of biphalin, an ultra-potent, non-selective, opioid agonist, in models of both permanent and transient ischemic stroke.
smiles,measurement,setting,value
C[C@@H](NC(=O)[C@@H](N)Cc1ccc(O)cc1)C(=O)NCC(=O)N[C@@H](Cc1ccccc1)C(=O)NNC(=O)[C@H](Cc1ccccc1)NC(=O)CNC(=O)[C@@H](C)NC(=O)[C@@H](N)Cc1ccc(O)cc1 [biphalin],biphalin uptake,"[1]; 2 h OGD + 6 h reperfusion, LC-MS/MS, mean ± SD, n = 4",2.5 ± 0.2 ng/µg
same,biphalin uptake,"[1]; 6 h OGD + 30 min reperfusion, LC-MS/MS, mean ± SD, n = 4",2 ± 0.25 ng/µg
same,biphalin uptake,[1]; 6 h OGD + 6 h reperfusion,decreased to the basal normoxic level
same,biphalin uptake,"[1]; after 1 h OGD, biphalin 10 µg/mL, 20 min, LC-MS/MS, mean ± SD, n = 4",1.31 ± 0.2 ng/µg
same,increase of biphalin uptake compared to normoxic conditions,"[1]; after 2 h OGD exposure (1% oxygen, no glucose), n = 4",2.8 fold
same,biphalin uptake,"[1]; after 2 h OGD, biphalin 10 µg/mL, 20 min, LC-MS/MS, mean ± SD, n = 4",1.89 ± 0.015 ng/µg
same,increase of biphalin uptake compared to normoxic conditions,"[1]; after 6 h OGD exposure (1% oxygen, no glucose), n = 4",2.4 fold
same,biphalin uptake,"[1]; after 6 h OGD, biphalin 10 µg/mL, 20 min, LC-MS/MS, mean ± SD, n = 4",1.64 ± 0.15 ng/µg
same,average reduction of biphalin uptake by E3S pre-incubation,"[1]; average over selected OGD and OGD-reperfusion timepoints (2 h OGD, 6 h OGD, 2 h OGD + 6 h R, 6 h OGD + 30 min R), n = 3",26.59 ± 8.01%
same,reduction of biphalin uptake by E3S,"[1]; normal (normoxic) conditions, E3S 10 µM",approximately 23%
same,biphalin uptake,"[1]; normoxic, without E3S, biphalin 10 µg/mL, 20 min, 37 °C, cell lysate (RIPA), LC-MS/MS, normalized to protein (BCA), mean ± SD, n = 4",0.49 ± 0.05 ng of biphalin per 1 ug of protein
same,biphalin uptake with E3S,"[1]; normoxic, E3S (OATP1 substrate) 10 µM pre-incubated 10 min, then co-incubated with biphalin 10 µg/mL 20 min, 37 °C, LC-MS/MS, mean ± SD, n = 4",0.37 ± 0.05 ng/ug protein
same,Papp A→B at 10 µg/mL,[2],5.67 ×10⁻⁶ cm/s
same,average reduction of biphalin transport in the presence of E3S,"[3]; A-B, average over OGD and OGD-reperfusion timepoints, E3S pre-treated 30 min, n = 3",37.96 ± 12.51%
same,transport of biphalin from basolateral to apical side (B to A),"[3]; B-A, to determine the role of P-gp or other efflux mechanisms, data not shown",negligible
same,reduction of biphalin transport by E3S,"[3]; normal (normoxic) conditions, A-B, E3S pre-incubated 30 min",~40%
same,injected dose accumulated in the brain,[4],0.05%
